Source: patent US10098900B2, “Pharmaceutical compositions and their use for treatment of cancer and autoimmune diseases” (ZHEJIANG DTRM BIOPHARMA CO. LTD., priority 2015, dated 2018)
Marks after values point to notes of the source that are not given here.

Tested on: collagen induced arthritis
Assay: Collagen-induced arthritis (CIA) model in male DBA/1 mice (clinical score, histopathology)
Assay type: in vivo, mouse
Design: Clinical Score (Mean) / Pathological score (Mean ± SEM), Inflammatory cell infiltration / Pathological score (Mean ± SEM), Pannus growth / Pathological score (Mean ± SEM), Cartilage injury / Pathological score (Mean ± SEM), Bone resorption / Pathological score (Mean ± SEM), Total: scale not given here
Method: Collagen-Induced Arthritis (CIA) Model: The combination of Compounds 3 and 12 was evaluated in collagen induced arthritis (CIA) mouse model in Male DBA/1 mice. The animals were divided into 8 groups, including a normal, a vehicle, […] treatment groups: […] On the same day, immunized mice were randomly divided into 7 groups: […] The treatments were given orally for 2 consecutive weeks. Body weight and clinical score were monitored through the study (recorded three times a week started after second immunization). At the end of the study, animals were euthanized and both hind paws were collected for histopathology analysis.

[1] = CIA study, Left hind paw, 3 alone, 1.5 mg/kg QD
[2] = CIA study, Right hind paw, 3 alone, 1.5 mg/kg QD

C=CC(=O)N1CC[C@@H](n2nc(-c3ccc(Oc4c(F)c(F)cc(F)c4F)cc3F)c3c(N)ncnc32)C1 [Compound 3, 1-((R)-3-(4-amino-3-(2-fluoro-4-(2,3,5,6-tetrafluorophenoxy)phenyl)-1H-pyrazolo[3,4-d]pyrimidin-1-yl)pyrrolidin-1-yl)prop-2-en-1-one]
effect on clinical score (CIA mice model, FIG. 15): absent
Pathological score (Mean ± SEM), Total (CIA study, 3 alone, 1.5 mg/kg QD): 3.90 ± 1.80
Pathological score (Mean ± SEM), Bone resorption [1]: 0.60 ± 0.13
Pathological score (Mean ± SEM), Cartilage injury [1]: 0.80 ± 0.47
Pathological score (Mean ± SEM), Inflammatory cell infiltration [1]: 1.00 ± 0.47
Pathological score (Mean ± SEM), Pannus growth [1]: 0.80 ± 0.47
Pathological score (Mean ± SEM), Bone resorption [2]: 0.10 ± 0.10
Pathological score (Mean ± SEM), Cartilage injury [2]: 0.20 ± 0.20
Pathological score (Mean ± SEM), Inflammatory cell infiltration [2]: 0.20 ± 0.20
Pathological score (Mean ± SEM), Pannus growth [2]: 0.20 ± 0.20
Clinical Score (Mean) (CIA study, day 21, 3 alone, 1.5 mg/kg QD): 0.00
Clinical Score (Mean) (CIA study, day 32, 3 alone, 1.5 mg/kg QD): 2.60
Clinical Score (Mean) (CIA study, day 39, 3 alone, 1.5 mg/kg QD): 4.20***
Clinical Score (Mean) (CIA study, day 42, 3 alone, 1.5 mg/kg QD): 4.00***
